Series [1] deals with T1, RXRβ (Homo sapiens, UniProt P28702).
T1 construct: expressed in transfected cells
T1 sequence (P28702 1-533): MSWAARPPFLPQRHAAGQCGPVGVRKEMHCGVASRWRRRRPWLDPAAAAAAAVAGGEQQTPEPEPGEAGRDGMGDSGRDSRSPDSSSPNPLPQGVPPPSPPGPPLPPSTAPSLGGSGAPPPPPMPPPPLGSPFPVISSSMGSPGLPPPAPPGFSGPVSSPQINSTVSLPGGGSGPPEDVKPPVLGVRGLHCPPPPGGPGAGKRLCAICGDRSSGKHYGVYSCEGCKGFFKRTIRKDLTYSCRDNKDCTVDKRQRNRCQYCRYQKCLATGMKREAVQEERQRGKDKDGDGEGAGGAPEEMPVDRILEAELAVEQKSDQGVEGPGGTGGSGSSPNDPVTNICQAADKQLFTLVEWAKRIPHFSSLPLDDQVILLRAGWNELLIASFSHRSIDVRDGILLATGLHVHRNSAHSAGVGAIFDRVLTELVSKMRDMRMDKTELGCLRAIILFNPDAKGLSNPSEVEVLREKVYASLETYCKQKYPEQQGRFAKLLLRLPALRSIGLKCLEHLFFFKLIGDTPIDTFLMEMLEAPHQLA
Put plainly: ligand binding assay, RXRβ. As to conditions: read-out: RXR Bind K1 β.
Source text: The results of the ligand binding assay are expressed in Ki numbers.

Series [2] deals with T2, RARα (Homo sapiens, UniProt P10276).
T2 sequence (P10276 183-417 limits assumed): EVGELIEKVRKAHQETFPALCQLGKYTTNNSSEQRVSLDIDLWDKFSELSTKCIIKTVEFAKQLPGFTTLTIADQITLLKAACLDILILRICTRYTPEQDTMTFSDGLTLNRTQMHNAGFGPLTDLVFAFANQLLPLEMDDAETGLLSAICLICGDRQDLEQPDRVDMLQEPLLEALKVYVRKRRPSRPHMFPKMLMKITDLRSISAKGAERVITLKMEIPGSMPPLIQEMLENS
The series can be described thus: chimeric receptor transactivation assay, RARα. It is filed as cell-based. An excerpt: (§1) One such assay is a chimeric receptor transactivation assay which tests for agonist-like activity in the RARα RARβ and RARγ receptor subtypes, and which is based on work published by Feigner P. L. and Holm M. (1989) Focus, 112 is described in detail in U.S. Pat. No. 5,455,265. The specification of U.S. Pat. No. 5,455,265 is hereby expressly incorporated by reference.
(§2) Table 1 discloses the activity of certain exemplary compounds of the invention in the above-described receptor transactivation and binding assays. Particularly, the transactivation data pertaining to activation of the RAR receptors were obtained in the chimeric assay, and the transactivation data pertaining to the activation of RXR receptors were obtained in the holoreceptor assay.

For series [3], the target named is T3, RARγ (Homo sapiens, UniProt P13631).
T3 sequence (P13631 185-419 limits assumed): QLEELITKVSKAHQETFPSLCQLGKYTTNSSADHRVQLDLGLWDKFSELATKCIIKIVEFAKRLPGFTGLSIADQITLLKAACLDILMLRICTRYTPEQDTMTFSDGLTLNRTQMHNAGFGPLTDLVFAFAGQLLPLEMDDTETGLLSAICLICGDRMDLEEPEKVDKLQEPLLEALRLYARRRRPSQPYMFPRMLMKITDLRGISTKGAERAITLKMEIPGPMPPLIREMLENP
The series can be described thus: chimeric receptor transactivation assay, RARγ. The series is classed as cell-based.
Source text: as §1, §2

Series [4] concerns the target T4, RARγ (Homo sapiens, UniProt P13631).
T4 sequence (P13631 1-454): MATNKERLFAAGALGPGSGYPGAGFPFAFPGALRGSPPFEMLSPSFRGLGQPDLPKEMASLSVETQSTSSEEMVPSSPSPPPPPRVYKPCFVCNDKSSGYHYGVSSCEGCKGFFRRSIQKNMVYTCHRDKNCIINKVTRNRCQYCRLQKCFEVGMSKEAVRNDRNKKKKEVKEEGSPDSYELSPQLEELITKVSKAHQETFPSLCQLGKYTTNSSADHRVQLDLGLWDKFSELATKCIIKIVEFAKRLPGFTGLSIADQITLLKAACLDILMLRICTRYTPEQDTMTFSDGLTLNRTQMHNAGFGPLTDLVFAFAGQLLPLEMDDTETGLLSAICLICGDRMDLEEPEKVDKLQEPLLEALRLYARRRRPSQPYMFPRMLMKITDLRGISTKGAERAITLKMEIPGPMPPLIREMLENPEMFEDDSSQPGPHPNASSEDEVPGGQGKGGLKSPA
Put plainly: ligand binding assay, RARγ. As to conditions: read-out: RAR Bind. K1 γ.
Source text: The results obtained in this assay are expressed in EC50 numbers, as they are also in the chimeric receptor transactivation assay. The results of the ligand binding assay are expressed in Ki numbers.

Series [5] concerns the target T5, RXRγ (Homo sapiens, UniProt P48443).
T5 construct: expressed in transfected cells
T5 sequence (P48443 1-463): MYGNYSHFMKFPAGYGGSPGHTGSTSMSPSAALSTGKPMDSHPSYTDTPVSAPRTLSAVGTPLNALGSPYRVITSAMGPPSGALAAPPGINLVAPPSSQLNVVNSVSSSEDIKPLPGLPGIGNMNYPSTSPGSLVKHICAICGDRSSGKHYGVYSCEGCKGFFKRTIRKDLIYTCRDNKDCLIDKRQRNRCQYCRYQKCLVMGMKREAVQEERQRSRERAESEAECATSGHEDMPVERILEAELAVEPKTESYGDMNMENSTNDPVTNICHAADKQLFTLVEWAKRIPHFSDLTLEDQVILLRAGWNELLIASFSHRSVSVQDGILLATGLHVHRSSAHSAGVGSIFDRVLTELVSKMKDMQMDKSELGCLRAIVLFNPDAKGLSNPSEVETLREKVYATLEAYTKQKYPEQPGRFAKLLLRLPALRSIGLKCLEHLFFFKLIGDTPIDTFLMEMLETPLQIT
The series can be described thus: holoreceptor transactivation assay, RXRγ. It is filed as cell-based. As to conditions: for RXR Trans. efficacy γ: efficacy as a percentage compared to the standard compound; for EC50: holoreceptor assay, read-out: RXR Trans. EC50 γ. An excerpt: Particularly, the transactivation data pertaining to activation of the RAR receptors were obtained in the chimeric assay, and the transactivation data pertaining to the activation of RXR receptors were obtained in the holoreceptor assay.

The test system of series [6] is female diabetic db/db mice. The series can be described thus: serum glucose, triglyceride and thyroxine levels in db/db mice. It is filed as in vivo. To be noted: female db/db mice, Compound 27 50 mg/kg. Here is the method: An assay described below tests the effect of compounds of the invention on serum glucose, tryglyceride and thyroxine levels in female 9-10 weeks old db/db mice.
Blood samples (70 μl) were taken by orbital bleeding at 11:00 AM on day 0 (pre-treatment), day 3, and day 6. On day 7, a blood sample (700 μl) was taken at 11:00 AM and the animals were sacrificed. Glucose, triglyceride and thyroxine (T4) levels were determined on a Boehringer Manheim Hatachi Clinical Chemistry Analyzer using standard protocols provided by the manufacturer and reagents that were supplied in commercially available kits (glucose and T4; Boehringer Manheim; triglycerides: Roche Diagnostics). Seven animals were treated in each group.

Where [7] appears, read: efficacy as a percentage compared to the standard compound.
[8] abbreviates: day 0 (pre-treatment), groups: standard compound 5 mg/kg.
Setting [9] is: oral gavage daily, standard compound 5 mg/kg.

What is called EC50 is the concentration giving half of the maximal effect. Take `CCCOc1cc2c(cc1\C(C)=C(F)/C=C/C(C)=C(\F)C(=O)O)C(C)(C)CCC2(C)C` [Compound 11, (2Z,4E,6E)-2,6-Difluoro-3-methyl-7-(5,5,8,8-tetramethyl-3-propoxy-5,6,7,8-tetrahydro-naphthalen-2-yl)-octa-2,4,6-trienoic acid]: the Ki worked out at 65 nM in series [1] and 250 nM in series [4]. Also, the concentration for a half-maximal effect (EC50) in series [2] (chimeric assay, read-out: RAR Trans. EC50 α) was 5 nM; in series [3] (chimeric assay, read-out: RAR Trans. EC50 γ), 180 nM. The “RAR Trans. efficacy α” value in series [2] (setting [7]) was found to be 12%. In addition, the “RAR Trans. efficacy γ” value in series [3] (setting [7]) stood at 28%.
As for `CC/C(=C(F)/C=C/C(C)=C(\F)C(=O)O)c1cc2c(cc1OCOC)C(C)(C)CCC2(C)C` [Compound 21, (2Z,4E,6E)-2,6-Difluoro-7-(3-methoxymethoxy-5,5,8,8-tetramethyl-5,6,7,8-tetrahydro-naphthalen-2-yl)-3-methyl-nona-2,4,6-trienoic acid], the Ki in series [1] turned out to be 60 nM. Besides, in series [4], the Ki is 940 nM. Also, in series [5], the “RXR Trans. efficacy γ” value is on record as 36% and the EC50 came out at 8 nM.
Take `CCOc1cc2c(cc1\C(CC)=C(F)/C=C/C(C)=C(\F)C(=O)O)C(C)(C)CCC2(C)C` [Compound 27, (2Z,4E,6E)-7-(3-Ethoxy-5,5,8,8-tetramethyl-5,6,7,8-tetrahydro-naphthalen-2-yl)-2,6-difluoro-3-methyl-nona-2,4,6-trienoic acid]: in series [1], the Ki came to 20 nM. In series [6] (setting [8]), the “Glucose Day 0” value stood at 384 mg/dL and the “Triglycerides Day 0” value came to 152 mg/dL. Further, in series [6] (oral gavage daily for seven days, standard compound 5 mg/kg), the “T4 Day 7” value came out at 3.9 ± 0.9 µg/dL. For the same compound, in series [6] (setting [9]), the “Glucose Day 3, 3 h” value was found to be 290 mg/dL; the “Glucose Day 6, 3 h” value was determined as 225 mg/dL; the “Triglycerides Day 3, 3 h” value is 106 mg/dL. In addition, the Ki in series [4] came out at 6400 nM. Moreover, in series [5], the “RXR Trans. efficacy γ” value turned out to be 23% and the 50% effective concentration (EC50) was 3 nM.

For the origin of these results see patent publication US6759547B1, “5,6,7,8-tetrahydronaphthalen-2-yl 2,6-difluoroheptatrienoic acid derivatives having serum glucose reducing activity” (Allergan, Inc., priority 2003, dated 2004).
